{"source": "PubChem BioAssay AID1996", "data": [{"conditions": "buffer; pH 7.4; 200.0 µM", "units": {"solubility kinetic": "µg/mL"}, "values": [{"smiles": "COC(=O)CNC(=O)COC(=O)/C=C/c1ccccc1[N+](=O)[O-]", "solubility kinetic": 41.3}, {"smiles": "O=C(Nc1ccccc1Oc1ccccc1)c1cccs1", "solubility kinetic": 15.2}, {"smiles": "COc1ccc(-c2cc(=O)[nH]c3ccccc23)cc1", "solubility kinetic": 4.6}, {"smiles": "S=C1NCN(Cc2cccnc2)CN1c1cccc(Cl)c1", "solubility kinetic": "> 47.8"}, {"smiles": "Cc1ccc(NC(=O)CCSc2ccccc2)c(C)c1", "solubility kinetic": "< 0.6"}, {"smiles": "COc1ccccc1C(=O)NCc1ccco1", "solubility kinetic": "> 34.7"}, {"smiles": "O=C(CC(=O)Nc1cccc(F)c1)Nc1cccc(F)c1", "solubility kinetic": 9.4}, {"smiles": "CCOC(=O)c1c2c3c(cccc3n(C)c1=O)C(=O)c1ccccc1-2", "solubility kinetic": 2.6}, {"smiles": "Br.COC(=O)CN1C2=NCCCN2c2ccccc21", "solubility kinetic": "> 48.9"}, {"smiles": "N#CC1(N2CCN(C(=O)c3ccccc3)CC2)CCCCC1", "solubility kinetic": 35.9}, {"smiles": "Cc1cccc(NC(=O)c2ccc3[nH]c(=O)c(=O)[nH]c3c2)n1", "solubility kinetic": 17.7}, {"smiles": "C#CCN(CC=C)C(=O)c1ccc2nc(C3CCCCC3)oc2c1", "solubility kinetic": 43.5}, {"smiles": "COC(=O)c1sccc1NC(=S)Nc1ccc(OC)cc1", "solubility kinetic": 35.3}, {"smiles": "COc1ccc(NS(=O)(=O)c2ccc(C(=O)NCC3(N4CCOCC4)CCCCC3)cc2)cc1", "solubility kinetic": 13.8}, {"smiles": "O=C(NCc1ccc2c(c1)OCO2)Nc1ccc(Cl)cc1", "solubility kinetic": 0.8}, {"smiles": "COCCCn1c(SCC(=O)c2ccccc2)nc2ccccc2c1=O", "solubility kinetic": 1.1}, {"smiles": "Cc1ccc(NC(=S)NCc2ccco2)c(C)c1", "solubility kinetic": "> 39.1"}, {"smiles": "CCC(=O)Nc1ccc(-c2ccc(N3CCN(C)CC3)nn2)cc1", "solubility kinetic": "> 48.8"}, {"smiles": "O=Cc1cccnc1SCc1ccccc1", "solubility kinetic": 15.5}, {"smiles": "COc1ccccc1-n1c(/C=C/c2ccccn2)nc2ccccc2c1=O", "solubility kinetic": 7.3}, {"smiles": "[Br-].c1ccc(C[n+]2ccc3ccccc3c2)cc1", "solubility kinetic": 43.9}, {"smiles": "CCN(C(=O)CSc1ncccc1C(=O)O)C1CCCCC1", "solubility kinetic": "> 48.4"}, {"smiles": "CCOc1ccc(S(=O)(=O)NC(Cc2cnc[nH]2)C(=O)O)cc1", "note": "(stereo not given)", "solubility kinetic": 25.8}, {"smiles": "CC(=O)N1CCN(C23CC4CC(CC(C4)C2)C3)CC1", "solubility kinetic": "> 39.4"}, {"smiles": "Br.CN1CCN(C(=O)Cc2ccccc2)CC1", "solubility kinetic": "> 44.9"}, {"smiles": "O=C(O)c1ccccc1C(=O)Nc1ccc(Oc2ccccc2)cc1", "solubility kinetic": "> 50"}, {"smiles": "COCCN1C2=C(COC(C)(C)C2)C(=S)NC1c1ccccc1", "note": "(stereo not given)", "solubility kinetic": "> 49.9"}, {"smiles": "CC(=O)c1cccc(NC(=O)CCC(=O)c2ccc(F)cc2)c1", "solubility kinetic": 3.8}, {"smiles": "Clc1ccc2nc(-c3ccc4c(c3)OCO4)cn2c1", "solubility kinetic": "< 0.3"}, {"smiles": "O=C(c1ccco1)N1CCN(Cc2nc(Cc3ccccc3)no2)CC1", "solubility kinetic": 37.7}, {"smiles": "CCN(CC)CC(=O)Nc1scc2c1c(=O)oc1ccccc12", "solubility kinetic": "< 0.4"}, {"smiles": "O=C(CN1CCOCC1)NN=C(c1ccccc1)c1ccccc1", "solubility kinetic": "> 48.5"}, {"smiles": "O=C(Cc1ccc(Cl)cc1)OCC(=O)c1ccc[nH]1", "solubility kinetic": 27.3}, {"smiles": "N#C/C(=C\\Nc1ccc(Cl)cn1)S(=O)(=O)c1ccccc1", "solubility kinetic": "< 0.2"}, {"smiles": "CC1CC(C)(C)NC(=S)N1CCCC(=O)Nc1ccc(Cl)cc1", "note": "(stereo not given)", "solubility kinetic": 36.7}, {"smiles": "CSc1ncccc1C(=O)N1CCN(C(=O)c2ccccc2)CC1", "solubility kinetic": "> 51.2"}, {"smiles": "S=C(Nc1ccc2nccnc2c1)N1CCCC1", "solubility kinetic": "> 38.8"}, {"smiles": "CC(=O)Nc1c2c(nn1-c1ccc(C)cc1)CS(=O)(=O)C2", "solubility kinetic": "> 45.8"}, {"smiles": "CCOC(=S)SCC(=O)Nc1ncc(C)s1", "solubility kinetic": 40.1}, {"smiles": "COc1ccccc1CC(=O)NC(=O)c1ccccc1O", "solubility kinetic": 41.5}, {"smiles": "Cc1ccc(NC(=O)N2CCCC(C(=O)O)C2)cc1", "note": "(stereo not given)", "solubility kinetic": "> 39.3"}, {"smiles": "CC1CCN(CC(=O)Nc2cccc(Cl)c2)CC1", "solubility kinetic": 39.7}, {"smiles": "COc1ccc2nc(N3C(=O)CNC3=S)sc2c1", "solubility kinetic": 19.5}, {"smiles": "Cl.Oc1ccccc1CNCC12CC3CC(CC(C3)C1)C2", "solubility kinetic": "> 46.2"}, {"smiles": "Cc1cccnc1NC(=O)C(c1ccccc1)c1ccccc1", "solubility kinetic": "> 45.4"}, {"smiles": "CCOc1ccc(NC2=CC(=O)CCC2)cc1", "solubility kinetic": 29.5}, {"smiles": "CCN(CC)C(=O)CSc1ncnc2sc(C)c(C)c12", "solubility kinetic": 43.4}, {"smiles": "Cc1ccc2nc(NS(=O)(=O)c3cn(C)nc3C)sc2c1", "solubility kinetic": "> 48.4"}, {"smiles": "O=C(Nc1ccc2c(c1)OCCO2)c1ccc(Br)cc1", "solubility kinetic": "< 0.7"}, {"smiles": "COc1ccc2c(c1)C(=O)C(=O)N2CC1COc2ccccc2O1", "note": "(stereo not given)", "solubility kinetic": 1.7}, {"smiles": "COc1cccc2[nH]c3c(N4CCc5ccccc5C4)ncnc3c12", "solubility kinetic": 0.9}, {"smiles": "O=c1[nH]cnc2ncc(-c3ccc(O)cc3)nc12", "solubility kinetic": "> 36"}, {"smiles": "O=C(Nc1ccc(C(=O)N2CCCC2)cc1)c1ccccc1[N+](=O)[O-]", "solubility kinetic": 48.2}, {"smiles": "N#Cc1cc2c(=O)n3ccccc3nc2n(-c2ccc(Cl)cc2)c1=O", "solubility kinetic": 1.4}, {"smiles": "O=C(c1ccccc1Cl)N1CCSCC1", "solubility kinetic": 31.7}, {"smiles": "Cc1c(N=Cc2c(O)n(C)c(=O)[nH]c2=O)c(=O)n(-c2ccccc2)n1C", "solubility kinetic": "> 53.3"}, {"smiles": "Cc1cc(NC(=O)CSc2ncc(C(=O)O)n2-c2ccc(F)cc2)no1", "solubility kinetic": 55.4}, {"smiles": "O=C(O)c1ccc(N2C(=O)CCCC2=O)cc1", "solubility kinetic": 25.9}, {"smiles": "CSc1nccc(-c2sc(SC)c(C#N)c2-c2ccccc2)n1", "solubility kinetic": "< 0.3"}, {"smiles": "COc1ccc(C(=O)OCC(=O)c2c[nH]c3ccccc23)c(OC)c1", "solubility kinetic": 4.5}]}]}
